Test results published in patent publication US10882859B2, “Kinase inhibitors” (Topivert Pharma Limited, priority 2015, dated 2021).

tested on: CD3/IL2 stimulated PBMC cells; experiment: IFNγ release from CD3/IL2 stimulated PBMC cells; format: cell-based; conditions: Homo sapiens, CD3/IL2 stimulation, 48 h, ELISA
Procedure: PBMCs from healthy subjects are separated from whole blood using a density gradient (Lymphoprep, Axis-Shield Healthcare). Cells are added to a 96 well plate, and compound at the desired concentration added 2 hours prior to stimulation with a mixture of monoclonal antibody to CD3 (1 μg/ml, eBioscience) and human recombinant IL2 (10 ng/ml, Peprotech). After 48 hours incubation under normal tissue culture conditions, supernatants are collected and IFNγ release determined by Sandwich ELISA (Duo-set, R&D System). The IC50 is determined from the dose response curve.

In order of rising IC50:
1. CCc1cc(O)c(F)cc1-c1ccc2c(-c3nc4c([nH]3)CCN(C(=O)N3CCCC3)C4)n[nH]c2c1 [Example 2(d), (2-(6-(2-ethyl-5-fluoro-4-hydroxyphenyl)-1H-indazol-3-yl)-1,4,6,7-tetrahydro-5H-imidazo[4,5-c]pyridin-5-yl)(pyrrolidin-1-yl)methanone]  5.1 nM
2. CCc1cc(O)c(F)cc1-c1ccc2c(-c3nc4c([nH]3)CCN(C(=O)Nc3ccccc3)C4)n[nH]c2c1 [Example 4(f), 2-(6-(2-ethyl-5-fluoro-4-hydroxyphenyl)-1H-indazol-3-yl)-N-phenyl-6,7-dihydro-1H-imidazo[4,5-c]pyridine-5(4H)-carboxamide]  19.6 nM
3. CCc1cc(O)c(F)cc1-c1ccc2c(-c3nc4c([nH]3)CN(C(=O)Nc3cccc5nsnc35)CC4)n[nH]c2c1 [Example 4(e), N-(benzo[c][1,2,5]thiadiazol-4-yl)-2-(6-(2-ethyl-5-fluoro-4-hydroxyphenyl)-1H-indazol-3-yl)-6,7-dihydro-1H-imidazo[4,5-c]pyridine-5(4H)-carboxamide]  30.9 nM
4. CCc1cc(O)c(F)cc1-c1ccc2c(-c3nc4c([nH]3)CCN(C(=O)N3CCc5ccccc53)C4)n[nH]c2c1 [Example 2(b), (2-(6-(2-ethyl-5-fluoro-4-hydroxyphenyl)-1H-indazol-3-yl)-1,4,6,7-tetrahydro-5H-imidazo[4,5-c]pyridin-5-yl)(indolin-1-yl)methanone]  31.3 nM
5. CCc1cc(O)c(F)cc1-c1ccc2c(-c3nc4c([nH]3)CCN(C(=O)Nc3c(C)noc3C)C4)n[nH]c2c1 [Example 4(c), N-(3,5-dimethylisoxazol-4-yl)-2-(6-(2-ethyl-5-fluoro-4-hydroxyphenyl)-1H-indazol-3-yl)-6,7-dihydro-1H-imidazo[4,5-c]pyridine-5(4H)-carboxamide]  44.2 nM
6. CCc1cc(O)c(F)cc1-c1ccc2c(-c3nc4c([nH]3)CCN(C(=O)Nc3ccc(S(C)(=O)=O)cc3)C4)n[nH]c2c1 [Example 4(b), 2-(6-(2-ethyl-5-fluoro-4-hydroxyphenyl)-1H-indazol-3-yl)-N-(4-(methylsulfonyl)phenyl)-6,7-dihydro-1H-imidazo[4,5-c]pyridine-5(4H)-carboxamide]  54.8 nM
7. CCc1cc(O)c(F)cc1-c1ccc2c(-c3nc4c([nH]3)CCN(S(=O)(=O)N3CCC(C(=O)NC)CC3)C4)n[nH]c2c1 [Example 6(b), 1-((2-(6-(2-ethyl-5-fluoro-4-hydroxyphenyl)-1H-indazol-3-yl)-6,7-dihydro-1H-imidazo[4,5-c]pyridin-5(4H)-yl)sulfonyl)-N-methylpiperidine-4-carboxamide]  100 nM
